Test results published in patent publication US4218453A, “N-Substituted hexahydro-6-canthinones for treating cardio-circulatory, cerebrovascular, and respiratory dysfunction” (priority 1976, dated 1980).

Assays:
Charles River stock mice = test: Hypobaric anoxia test on mice (survival time); type: in vivo; conditions: for activity relative to vincamine: comparison on the basis of fractions of LD50
Procedure: Charles River stock mice of the same sex, weighting about 20±2 g are shared into three lots of 10 animals each. The lots 1 and 2 comprise treated animals, i.e. those having received either a substance to be tested or vincamine, together with solvent, at 1 ml/100 g of body weight. The third lot comprises control animals i.e. those having only received solvent at 1 ml/100 g of body weight.
The compounds examined were administered by intragastric route 15 minutes before the experiment. The doses as applied correspond to 1/5, 1/10, 1/20 of the LD50 for the compounds of the invention and 1/5 of LD50 for vincamine.
The animals were placed in an atmosphere impoverished in oxygen by creating a partial vacuum (190 mm Hg, corresponding to 5.25% oxygen), in about 30 seconds.
The survival time of the mice was measured with a chronometer. Said time is increased by the agents capable of enhancing oxygenation of tissues and more particularly brain oxygenation.
The percentages of survival time increase with respect to the values obtained for the control animals are calculated.

[1] = Acute toxicity, intragastric route, mice (LD50, Lichtfield and Wilcoxon); conditions: mouse, in vivo, po
Procedure: The compounds of the invention and vincamine also were administered by intragastric route to Charles River stock mice. The lethal doses for 50% (LD50) were determined graphically according to the method of Lichtfield and Wilcoxon (J. Pharmacol. Exp. Therap. […], 96, 99).

In the case of CCN1CCc2c3n(c4ccccc24)C(=O)CCC31 (stereo not drawn) [OC-331, 3-ethyl-1,2,3,3a,4,5-hexahydro-6-canthinone], the “Variation % (survival time increase vs control)” value (Charles River stock mice; Table III, 1st experiment, 80 mg/kg or LD50/5) is reported as 214%, the Survival time (Charles River stock mice; Table III, 1st experiment, 80 mg/kg or LD50/5, control 39 (± 2)) is reported as 122 (± 1) sec and the “Variation % (survival time increase vs control)” value (Charles River stock mice; Table III, 2nd experiment, 40 mg/kg or LD50/10) is reported as 105%. For the same compound, the Survival time (Charles River stock mice; Table III, 2nd experiment, 40 mg/kg or LD50/10, control 39 (± 1)) was 80 (± 3) sec, the “Variation % (survival time increase vs control)” value (Charles River stock mice; Table III, 3rd experiment, 20 mg/kg or LD50/20) was 75% and the Survival time (Charles River stock mice; Table III, 3rd experiment, 20 mg/kg or LD50/20, control 39 (± 1)) was 57 (± 4) sec. The “effect compared with vincamine at 1/5 LD50” value (Charles River stock mice; at doses corresponding to 1/20 LD50 for mice (p.o.)) was “exerts an effect comparable to vincamine at 1/5 LD50”, the “activity relative to vincamine” value (Charles River stock mice) was “about four times more active than vincamine” and the LD50 ([1]; mice) was 411 mg/kg.
For CN1CCc2c3n(c4c(O)cccc24)C(=O)CCC31 (stereo not drawn) [OC-332], the “Variation % (survival time increase vs control)” value (Charles River stock mice; Table IV, 100 mg/kg or LD50/5) was 117%, the Survival time (Charles River stock mice; Table IV, 100 mg/kg or LD50/5, control 35 (± 3)) was 76 (± 1) sec and the “effect relative to vincamine” value (Charles River stock mice; at equally toxic dose) was “about 1.5 times higher”. The LD50 [1] was 527 mg/kg.
With CN1CCc2c3n(c4ccccc24)C(=O)CCC31 (stereo not drawn) [OC-330] the “Variation % (survival time increase vs control)” value (Charles River stock mice; Table II, 1st experiment, 60 mg/kg or LD50/5, intragastric 15 min before) was 212%, the Survival time (Charles River stock mice; Table II, 1st experiment, 60 mg/kg or LD50/5, intragastric 15 min before, control 39 (± 2)) was 122 (± 4) sec and the “Variation % (survival time increase vs control)” value (Charles River stock mice; Table II, 2nd experiment, 30 mg/kg or LD50/5 (so in the source)) was 71%. The Survival time (Charles River stock mice; Table II, 2nd experiment, 30 mg/kg or LD50/5 (so in the source), control 39 (± 3)) was 67 (± 3) sec, the “effect compared with vincamine at 1/5 LD50” value (Charles River stock mice; at doses corresponding to 1/10 LD50 for mice (p.o.)) was “exerts an effect whose intensity is comparable to vincamine at 1/5 LD50” and the “activity relative to vincamine” value (Charles River stock mice) was “about two times more active than vincamine”. For the same compound, the LD50 ([1]; mice) was 310 mg/kg.
For CC[C@]12CCCN3CCc4c(n(c5ccccc45)[C@@](O)(C(=O)OC)C1)[C@@H]32 [Vincamine, vincamine, reference compound], the “Variation % (survival time increase vs control)” value (Charles River stock mice; Table II, 1st experiment, vincamine 200 mg/kg, LD50/5) was 67%, the Survival time (Charles River stock mice; Table II, 1st experiment, vincamine 200 mg/kg, LD50/5, control 39 (± 2)) was 65 (± 1) sec and the “Variation % (survival time increase vs control)” value (Charles River stock mice; Table II, 2nd experiment, vincamine 200 mg/kg or LD50/5) was 67%. The Survival time (Charles River stock mice; Table II, 2nd experiment, vincamine 200 mg/kg or LD50/5, control 39 (± 3)) was 65 (± 2) sec, the “Variation % (survival time increase vs control)” value (Charles River stock mice; Table III, 1st experiment, vincamine 200 mg/kg or LD50/5) was 67% and the Survival time (Charles River stock mice; Table III, 1st experiment, vincamine 200 mg/kg or LD50/5, control 39 (± 2)) was 65 (± 3) sec. For the same compound, the “Variation % (survival time increase vs control)” value (Charles River stock mice; Table III, 2nd experiment, vincamine 200 mg/kg or LD50/5) was 67%, the Survival time (Charles River stock mice; Table III, 2nd experiment, vincamine 200 mg/kg or LD50/5, control 39 (± 1)) was 65 (+ 1) sec and the “Variation % (survival time increase vs control)” value (Charles River stock mice; Table III, 3rd experiment, vincamine 200 mg/kg or LD50/5) was 59%. For the same compound, the Survival time (Charles River stock mice; Table III, 3rd experiment, vincamine 200 mg/kg or LD50/5, control 39 (± 1)) was 52 (± 1) sec, the “Variation % (survival time increase vs control)” value (Charles River stock mice; Table IV, vincamine 200 mg/kg or LD50/5) was 77% and the Survival time (Charles River stock mice; Table IV, vincamine 200 mg/kg or LD50/5, control 35 (± 3)) was 62 (± 4) sec. The LD50 ([1]; mice) was 970 mg/kg.
